One assay deals with D(2) dopamine receptor (Homo sapiens, UniProt P14416). Nature of the assay: Binding affinity to dopamine D2 receptor (unknown origin) by radioligand binding assay.
Assay [1] has as its target T1, Adrenergic receptor alpha-1 (Homo sapiens, UniProt P35348+P25100+P35368).
T1 sequence (P35348 whole entry): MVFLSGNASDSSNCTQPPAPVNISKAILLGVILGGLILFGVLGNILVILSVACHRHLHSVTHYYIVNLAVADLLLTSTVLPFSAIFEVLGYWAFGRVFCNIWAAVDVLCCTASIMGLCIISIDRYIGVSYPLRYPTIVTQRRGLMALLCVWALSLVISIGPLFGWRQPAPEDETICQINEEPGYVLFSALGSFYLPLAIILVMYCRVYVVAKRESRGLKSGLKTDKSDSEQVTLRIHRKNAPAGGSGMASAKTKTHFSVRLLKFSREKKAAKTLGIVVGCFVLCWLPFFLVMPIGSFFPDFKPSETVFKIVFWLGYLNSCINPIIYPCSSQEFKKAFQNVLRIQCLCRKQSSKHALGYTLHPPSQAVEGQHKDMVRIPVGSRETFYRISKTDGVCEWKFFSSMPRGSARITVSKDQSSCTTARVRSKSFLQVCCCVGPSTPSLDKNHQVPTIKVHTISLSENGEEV
T1 sequence (P25100 whole entry): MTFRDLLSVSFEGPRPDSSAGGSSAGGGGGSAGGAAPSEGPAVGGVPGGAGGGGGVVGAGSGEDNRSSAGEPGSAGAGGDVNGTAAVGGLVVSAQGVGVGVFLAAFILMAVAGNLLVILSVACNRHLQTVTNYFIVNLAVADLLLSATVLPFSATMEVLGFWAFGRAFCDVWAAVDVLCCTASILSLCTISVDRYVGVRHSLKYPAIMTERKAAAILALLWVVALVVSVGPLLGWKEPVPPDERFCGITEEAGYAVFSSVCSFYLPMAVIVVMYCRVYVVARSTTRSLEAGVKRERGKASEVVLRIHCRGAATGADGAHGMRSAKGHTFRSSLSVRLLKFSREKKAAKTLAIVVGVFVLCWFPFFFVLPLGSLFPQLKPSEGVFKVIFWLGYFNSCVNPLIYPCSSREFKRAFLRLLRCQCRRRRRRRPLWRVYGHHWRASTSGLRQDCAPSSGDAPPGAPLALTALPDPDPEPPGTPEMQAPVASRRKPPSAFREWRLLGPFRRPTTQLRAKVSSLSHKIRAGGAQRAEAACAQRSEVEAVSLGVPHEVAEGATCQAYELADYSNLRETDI
T1 sequence (P35368 whole entry): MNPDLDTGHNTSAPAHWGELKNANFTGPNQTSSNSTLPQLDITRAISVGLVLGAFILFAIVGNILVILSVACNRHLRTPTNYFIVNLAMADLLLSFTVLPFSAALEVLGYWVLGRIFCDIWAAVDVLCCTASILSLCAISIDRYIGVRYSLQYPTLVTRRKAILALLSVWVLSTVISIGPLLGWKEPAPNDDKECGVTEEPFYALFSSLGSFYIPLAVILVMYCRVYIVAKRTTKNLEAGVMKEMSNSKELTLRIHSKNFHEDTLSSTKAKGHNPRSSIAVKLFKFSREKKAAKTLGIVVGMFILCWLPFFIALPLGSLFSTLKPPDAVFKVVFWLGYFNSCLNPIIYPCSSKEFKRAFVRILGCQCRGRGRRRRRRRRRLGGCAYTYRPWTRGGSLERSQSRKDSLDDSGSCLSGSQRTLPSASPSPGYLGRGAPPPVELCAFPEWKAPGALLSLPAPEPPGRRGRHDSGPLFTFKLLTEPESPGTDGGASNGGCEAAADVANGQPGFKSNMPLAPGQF
Nature of the assay: Binding affinity to adrenergic alpha1 receptor (unknown origin) by radioligand binding assay.

Assay [2] deals with 5-hydroxytryptamine receptor 7 (Homo sapiens, UniProt P34969). Nature of the assay: Binding affinity to 5HT7 receptor (unknown origin) by radioligand binding assay.

In ChEMBL document CHEMBL3085767, “Polypharmacology - foe or friend?” (J Med Chem, 2013) one finds IC50 and Ki data, which are given here for three compounds.

D(2) dopamine receptor, sequence (P14416 whole entry): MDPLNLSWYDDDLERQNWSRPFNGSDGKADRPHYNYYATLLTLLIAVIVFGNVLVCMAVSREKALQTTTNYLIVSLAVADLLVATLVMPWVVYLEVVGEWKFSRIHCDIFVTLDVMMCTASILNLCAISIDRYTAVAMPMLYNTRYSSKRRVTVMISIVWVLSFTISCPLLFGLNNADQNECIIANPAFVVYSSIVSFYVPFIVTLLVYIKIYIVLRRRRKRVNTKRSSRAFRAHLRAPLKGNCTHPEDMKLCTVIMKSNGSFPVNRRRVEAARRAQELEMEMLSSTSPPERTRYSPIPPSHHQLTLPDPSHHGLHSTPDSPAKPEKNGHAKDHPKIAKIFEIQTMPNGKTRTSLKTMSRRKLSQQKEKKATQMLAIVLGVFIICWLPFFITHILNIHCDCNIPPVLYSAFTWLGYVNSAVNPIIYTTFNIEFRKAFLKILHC
5-hydroxytryptamine receptor 7, sequence (P34969 whole entry): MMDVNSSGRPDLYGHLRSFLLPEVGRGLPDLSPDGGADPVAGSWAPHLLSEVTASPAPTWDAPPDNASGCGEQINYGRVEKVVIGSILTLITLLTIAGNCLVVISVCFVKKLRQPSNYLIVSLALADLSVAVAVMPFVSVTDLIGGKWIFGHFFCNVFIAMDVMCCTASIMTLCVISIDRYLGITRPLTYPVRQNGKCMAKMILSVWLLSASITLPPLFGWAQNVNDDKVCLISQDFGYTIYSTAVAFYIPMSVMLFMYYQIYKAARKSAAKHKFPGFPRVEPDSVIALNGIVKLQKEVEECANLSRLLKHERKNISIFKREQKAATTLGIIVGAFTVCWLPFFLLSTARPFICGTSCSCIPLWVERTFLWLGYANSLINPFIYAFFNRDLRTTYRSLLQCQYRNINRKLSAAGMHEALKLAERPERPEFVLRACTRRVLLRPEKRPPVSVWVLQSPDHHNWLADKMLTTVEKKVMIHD

`CN(C)CCCN1c2ccccc2CCc2ccccc21` [IMIPRAMINE] registered an IC50 at D(2) dopamine receptor of 410 nM.
Same read-out and setting: with `CC(CN1c2ccccc2Sc2ccccc21)N(C)C` (centres undefined) [PROMETHAZINE] the figure was 100 nM.
Turning to `O=C1Cc2cc(CCN3CCN(c4nsc5ccccc45)CC3)c(Cl)cc2N1` [ZIPRASIDONE], the inhibition constant (Ki) came out at 11 nM in assay [1] and 6 nM in assay [2].

The IC50 is the point on the concentration scale where inhibition reaches its midpoint. A low value points to greater potency in that assay. Broadly, the Ki is a measure of affinity in units of concentration, obtained from inhibition or displacement.
